Laboratory results as given in patent US12503454B2, “LPA receptor antagonists and uses thereof” (Gilead Sciences, Inc., priority 2021, dated 2025).

Each molecule was assayed against human LPAR1 (Homo sapiens, UniProt Q92633) (assay: LPAR1 intracellular calcium mobilization assay (antagonist mode, FLIPR)). Details: CHO-K1 EDG2 cells expressing human LPAR1; test compound 0.5 nM to 10 μM pre-incubated 60 minutes at 37° C., then LPA 18:2 at EC80 concentration (100 nM).
human LPAR1, sequence (Q92633 whole entry): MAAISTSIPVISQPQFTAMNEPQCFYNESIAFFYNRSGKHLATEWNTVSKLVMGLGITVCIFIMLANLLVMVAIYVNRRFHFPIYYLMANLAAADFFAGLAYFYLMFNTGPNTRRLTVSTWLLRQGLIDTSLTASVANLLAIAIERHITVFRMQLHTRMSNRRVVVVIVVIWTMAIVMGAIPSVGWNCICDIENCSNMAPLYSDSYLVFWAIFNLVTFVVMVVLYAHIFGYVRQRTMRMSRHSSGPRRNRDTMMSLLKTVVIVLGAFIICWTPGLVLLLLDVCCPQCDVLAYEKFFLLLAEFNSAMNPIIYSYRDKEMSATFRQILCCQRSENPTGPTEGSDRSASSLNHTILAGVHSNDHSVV
Format: cell-based
Outline: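 CHO-K1 cells expressing human LPAR1, Calcium 6 dye-loaded with 2.5 mM probenecid, pre-incubated 60 min at 37°C with compound (0.5 nM–10 μM), then challenged with LPA 18:2 at EC80 (100 nM). FLIPR Tetra signal amplitude (max minus min) plotted against log concentration.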
For `C[C@@H](OC(=O)Nc1c(-c2ccc(C(=O)NC34CC(C#N)(C3)C4)cn2)nnn1C)c1cc(F)cnc1Cl` [Compound 47, (R)-1-(2-chloro-5-fluoropyridin-3-yl)ethyl (4-(5-((3-cyanobicyclo-[1.1.1]pentan-1-yl)carbamoyl)-pyridin-2-yl)-1-methyl-1H-1,2,3-triazol-5-yl)-carbamate], the EC50 was under 4.6 nM. For `C[C@@H](OC(=O)Nc1c(-c2ccc(C(=O)NC34CC(C(F)F)(C3)C4)cn2)nnn1C)c1cc(F)cnc1Cl` [Compound 48, (R)-1-(2-chloro-5-fluoropyridin-3-yl)ethyl (4-(5-((3-(difluoromethyl)-bicyclo[1.1.1]-pentan-1-yl)-carbamoyl)pyridin-2-yl)-1-methyl-1H-1,2,3-triazol-5-yl)carbamate], the EC50 was 80.7 nM. With `C[C@@H](OC(=O)Nc1c(-c2ccc(C(=O)Nc3ccc(C#N)cc3)cn2)nnn1C)c1cc(F)cnc1Cl` [Compound 49, (R)-1-(2-chloro-5-fluoropyridin-3-yl)ethyl (4-(5-((4-cyanophenyl)-carbamoyl)pyridin-2-yl)-1-methyl-1H-1,2,3-triazol-5-yl)carbamate] the EC50 was 74.3 nM. Molecule `C[C@@H](OC(=O)Nc1c(-c2ccc(C(=O)Nc3ccnc(C#N)c3)cn2)nnn1C)c1cc(F)cnc1Cl` [Compound 50, (R)-1-(2-chloro-5-fluoropyridin-3-yl)ethyl (4-(5-((2-cyanopyridin-4-yl)carbamoyl)-pyridin-2-yl)-1-methyl-1H-1,2,3-triazol-5-yl)-carbamate] has an EC50 of 8.7 nM. In the case of `C[C@@H](OC(=O)Nc1c(-c2ccc(C(=O)Nc3cc(Cl)nc(Cl)c3)cn2)nnn1C)c1cc(F)cnc1Cl` [Compound 51, (R)-1-(2-chloro-5-fluoropyridin-3-yl)ethyl (4-(5-((2,6-dichloro-pyridin-4-yl)-carbamoyl)pyridin-2-yl)-1-methyl-1H-1,2,3-triazol-5-yl)carbamate], the EC50 is reported as under 4.6 nM. For `C[C@@H](OC(=O)Nc1c(-c2ccc(C(=O)Nc3nc(C(F)(F)F)co3)cn2)nnn1C)c1cc(F)cnc1Cl` [Compound 52], the EC50 was 281 nM. In the case of `C[C@@H](OC(=O)Nc1c(-c2ccc(C(=O)Nc3ncc(C(F)(F)F)s3)cn2)nnn1C)c1cc(F)cnc1Cl` [Compound 53, (R)-1-(2-chloro-5-fluoropyridin-3-yl)ethyl (1-methyl-4-(5-((5-(trifluoro-methyl)thiazol-2-yl)carbamoyl)-pyridin-2-yl)-1H-1,2,3-triazol-5-yl)carbamate], the EC50 is reported as 19.4 nM. In the case of `C#CC12CC(NC(=O)c3ccc(-c4nnn(C)c4NC(=O)O[C@H](C)c4cc(F)cnc4Cl)nc3)(C1)C2` [Compound 54, (R)-1-(2-chloro-5-fluoropyridin-3-yl)ethyl (4-(5-((3-ethynylbicyclo-[1.1.1]pentan-1-yl)carbamoyl)-pyridin-2-yl)-1-methyl-1H-1,2,3-triazol-5-yl)-carbamate], the EC50 is reported as under 4.6 nM. Work on `C[C@@H](OC(=O)Nc1c(-c2ccc(C(=O)NC34CC(Cl)(C3)C4)cn2)nnn1C)c1cccnc1F` [Compound 55, (R)-1-(2-fluoropyridin-3-yl)ethyl (4-(5-((3-chlorobicyclo[1.1.1]pentan-1-yl)carbamoyl)pyridin-2-yl)-1-methyl-1H-1,2,3-triazol-5-yl)carbamate] yielded an EC50 of 58.1 nM. For `C[C@@H](OC(=O)Nc1c(-c2ccc(C(=O)NC34CC(C(F)(F)F)(C3)C4)cn2)nnn1C)c1cccnc1F` [Compound 56, (R)-1-(2-fluoropyridin-3-yl)ethyl (1-methyl-4-(5-((3-(trifluoro-methyl)bicyclo[1.1.1]-pentan-1-yl)carbamoyl)-pyridin-2-yl)-1H-1,2,3-triazol-5-yl)carbamate], the EC50 was 139 nM. For `C[C@@H](OC(=O)Nc1c(-c2ccc(C(=O)NC34CC(F)(C3)C4)cn2)nnn1C)c1cccnc1F` [Compound 57, (R)-1-(2-fluoropyridin-3-ylethyl (4-(5-((3-fluorobicyclo[1.1.1]-pentan-1-yl)carbamoyl)-pyridin-2-yl)-1-methyl-1H-1,2,3-triazol-5-yl)-carbamate], the EC50 was 717 nM. In the case of `Cc1nc(-c2nnn(C)c2NC(=O)O[C@H](C)c2cccnc2Cl)ccc1C(=O)NC12CC(Cl)(C1)C2` [Compound 58, (R)-1-(2-chloropyridin-3-yl)ethyl (4-(5-((3-chlorobicyclo[1.1.1]pentan-1-yl)carbamoyl)-6-methylpyridin-2-yl)-1-methyl-1H-1,2,3-triazol-5-yl)carbamate], the EC50 is reported as 48.3 nM. In the case of `C[C@@H](OC(=O)Nc1c(-c2ncc(C(=O)NC34CC(C#N)(C3)C4)cc2F)nnn1C)c1cccnc1Cl` [Compound 59, (R)-1-(2-chloropyridin-3-yl)ethyl (4-(5-((3-cyanobicyclo[1.1.1]pentan-1-yl)carbamoyl)-3-fluoropyridin-2-yl)-1-methyl-1H-1,2,3-triazol-5-yl)carbamate], the EC50 is reported as 23.2 nM. `C[C@@H](OC(=O)Nc1c(-c2ccc(C(=O)NC34CC(F)(C3)C4)c(Cl)n2)nnn1C)c1cccnc1Cl` [Compound 60, (R)-1-(2-chloropyridin-3-yl)ethyl (4-(6-chloro-5-((3-fluorobicyclo[1.1.1]pentan-1-yl)carbamoyl)pyridin-2-yl)-1-methyl-1H-1,2,3-triazol-5-yl)carbamate] was tested, and the EC50 was 93.4 nM. `C[C@@H](OC(=O)Nc1c(-c2cc(F)c(C(=O)NC34CC(C#N)(C3)C4)cn2)nnn1C)c1cccnc1Cl` [Compound 61, (R)-1-(2-chloropyridin-3-yl)ethyl (4-(5-((3-cyanobicyclo[1.1.1]pentan-1-yl)carbamoyl)-4-fluoropyridin-2-yl)-1-methyl-1H-1,2,3-triazol-5-yl)carbamate] showed an EC50 of 233 nM. Work on `C[C@@H](OC(=O)Nc1c(-c2ccc(C(=O)NC34CC(C#N)(C3)C4)c(C(F)(F)F)n2)nnn1C)c1cccnc1Cl` [Compound 62, (R)-1-(2-chloropyridin-3-yl)ethyl (4-(5-((3-cyanobicyclo[1.1.1]pentan-1-yl)carbamoyl)-6-(trifluoromethyl)pyridin-2-yl)-1-methyl-1H-1,2,3-triazol-5-yl)carbamate] yielded an EC50 of 14.5 nM. `C[C@@H](OC(=O)Nc1c(-c2ccc(C(=O)NC34CC(F)(C3)C4)c(F)n2)nnn1C)c1cccnc1Cl` [Compound 63, (R)-1-(2-chloropyridin-3-yl)ethyl (4-(6-fluoro-5-((3-fluorobicyclo[1.1.1]pentan-1-yl)carbamoyl)pyridin-2-yl)-1-methyl-1H-1,2,3-triazol-5-yl)carbamate] was tested, and the EC50 was 145 nM. Work on `C[C@@H](OC(=O)Nc1c(-c2ncc(C(=O)NC34CC(F)(C3)C4)cc2F)nnn1C)c1cccnc1Cl` [Compound 64, (R)-1-(2-chloropyridin-3-yl)ethyl (4-(3-fluoro-5-((3-fluorobicyclo[1.1.1]pentan-1-yl)carbamoyl)pyridin-2-yl)-1-methyl-1H-1,2,3-triazol-5-yl)carbamate] yielded an EC50 of 93.5 nM. Molecule `C[C@@H](OC(=O)Nc1c(-c2ccc(C(=O)NC34CC(C#N)(C3)C4)c(Cl)n2)nnn1C)c1cccnc1Cl` [Compound 65, (R)-1-(2-chloropyridin-3-yl)ethyl (4-(6-chloro-5-((3-cyanobicyclo[1.1.1]pentan-1-yl)carbamoyl)pyridin-2-yl)-1-methyl-1H-1,2,3-triazol-5-yl)carbamate] has an EC50 of under 4.6 nM. For `C[C@@H](OC(=O)Nc1c(-c2ccc(C(=O)NC34CC(F)(C3)C4)c(C(F)(F)F)n2)nnn1C)c1cccnc1Cl` [Compound 66, (R)-1-(2-chloropyridin-3-yl)ethyl (4-(5-((3-fluorobicyclo[1.1.1]pentan-1-yl)carbamoyl)-6-(trifluoromethyl)pyridin-2-yl)-1-methyl-1H-1,2,3-triazol-5-yl)carbamate], the EC50 was 210 nM.
